The subject of assay [1] is MDA-MB-231. Nature of the assay: MTT proliferation assay, MDA-MB-231. Type of assay: cell-based, human. The note with it: Homo sapiens, read-out: IC50 (μM) MDA-MB-231. The source says: (§1) The antiproliferative and anti-invasive activities of compounds 1-14 were quantified using MTT and cell invasion assay kits, respectively. Latrunculin A (compound 1) was used as a positive control in all biological assays, because it is known to be an actin polymerization inhibitor, with cytotoxic, antiproliferative, and anti-invasive activities. The 3-[4,5-dimethylthiazol-2-yl]-2,5-diphenyl tetrazolium bromide (MTT) assay selectively detects living cells in a quantitative, colorimetric fashion, based on a living cell's ability to reduce MTT to an insoluble, purple formazan dye. The MTT assay is routinely used to assess cytotoxicity and proliferation inhibition activities. The antiproliferative activities of compounds 1-14 were measured against two human mammary gland adenocarcinoma cell lines, MCF7 and MDA-MB-231, and against human prostate cancer cells PC-3 at five different doses (0.1, 0.5, 1, 10, and 50 μM). While many of the semisynthetic latrunculins had similar activity levels, some had greater activity than compound 1. […] Although the MDA-MB-231 cells were more resistant than MCF7 against most latrunculin derivatives tested, compound 14 had potent activity against both cell lines.
(§2) MTT Proliferation Assay. The growth of MCF7, MDA-MB-231, and PC-3 cancer cell lines was measured using an MTT kit (TACS™, TREVIGEN®, Inc.). Exponentially growing cells were plated in a 96-well plate at a density of 8×10^3 cells per well, and allowed to attach for 24 h. Complete growth medium was then replaced with 100 μL of RPMI serum-free medium containing various concentrations (50, 10, 1, 0.5, 0.1 μM) of the particular test compound. Culture continued at 37° C. under 5% CO2. After 72 h of culture, the cells were treated with MTT solution (10 μL/well) at 37° C. for 4 h. The color reaction was stopped by adding solubilization/stop solution (100 μL/well). Incubation continued at 37° C. continued to completely dissolve the formazan dye product. Absorbance of the samples was determined at 570 nm with an ELISA plate reader (BioTek, VT). The number of cells per well was calculated against a standard curve that had been prepared by plating various concentrations of cells, as determined by hemocytometer, at the start of each experiment. IC50 for each compound was calculated using a nonlinear regression curve fit of log concentration versus the number of cells/well, using GraphPad Prism 5.0 (GraphPad Software, La Jolla, Calif.).
(In general: Tetrazolium dyes change colour on reduction, which living cells bring about.)

The subject of assay [2] is MDA-MB-231 cells. Put plainly: Cultrex BME cell invasion assay. Type of assay: cell-based, human. Here is the method:
The anti-invasive activities of compounds 1-14 were measured using a 96 well basement membrane extract (BME) cell invasion assay kit against the highly metastatic MDA-MB-231 cells. This assay employs a simplified Boyden Chamber with a polyethylene terephthalate membrane (8 μm pore size). Cell invasion was quantified using calcein-acetomethylester (calcein-AM). Cells internalize calcein-AM; intracellular esterases then cleave the acetomethylester moiety to generate free calcein. Free calcein fluoresces brightly. This fluorescence may be used to quantify the number of cells that have invaded across the BME. To correlate the anti-invasive activities of the latrunculin A derivatives with their actin-disrupting activities, compounds 1-14 were each tested at non-toxic concentrations. […] Accordingly, all compounds were tested at 0.1, 0.5, and 1.0 μM. Compound 3 killed 17% of MDA-MB-231 cells at 1.0 μM, while the same dose of compound 3 inhibited 95% of MDA-MB-231 cells' invasion. […] The anti-invasive activities of compounds 1-14 are attributed primarily to the inhibition of actin polymerization, not to cell death per se.
Cultrex® Cell Invasion Assay. Anti-invasive activities were measured using Trevigen's Cultrex® Cell Invasion Assay as described in K. Tamilarasan et al., BMC Cell Biol. 2006, 7, 17-30; and P. Borghesani et al., Development. 2002, 6, 1435-1442. About 50 μL of basement membrane extract (BME) coat was added to each well. After incubation for 4 h at 37° C. under 5% CO2, 50,000 MDA-MB-231 cells in 50 μL of serum free RPMI medium were added to each well in the top chamber, along with the test compound at one of several concentrations (0.1, 0.5, 1 μM). About 150 μL of RPMI medium was added to the lower chamber in 10% FBS and penicillin/streptomycin, using fibronectin ([…]) and N-formyl-met-leu-phe (10 nM) as chemoattractants. Cells were allowed to migrate to the lower chamber at 37° C. under 5% CO2. After 24 h, the top and bottom chambers were aspirated and washed with the washing buffer that had been supplied with the kit. About 100 μL of Cell Dissociation Solution/Calcein-AM solution was added to the bottom chamber, and the cells were incubated at 37° C. under CO2 for 1 h. Briefly, the cells internalize calcein-AM, and then the intracellular esterases cleave the AM moiety to generate free calcein. […] The number of cells that had invaded through the BME coat was calculated using a standard curve.

Assay [3] deals with MCF7. Put plainly: MTT proliferation assay, MCF7. The note with it: Homo sapiens, read-out: IC50 (μM) MCF7. Type of assay: cell-based, human.
Source text: as §1, §2

For assay [4], the target named is T1, pyrene-conjugated actin (Oryctolagus cuniculus, UniProt P68135).
T1 construct: purchased Cytoskeleton, Denver, Colo
Nature of the assay: Pyrene actin polymerization assay. Type of assay: biochemical. The following applies: for inhibition at 0.1 µM: read-out: Actin polymerization inhibition (%) 100 nM; for inhibition at 1 µM: read-out: Actin polymerization inhibition (%) 1 μM; for IC50: mean ± SEM, triplicate. On the procedure:
An actin polymerization kit was used to assess the direct actin-binding activity of each analogue at two concentrations: 100 nM and 1 μM. This kit is based on the enhanced fluorescence of pyrene-conjugated actin that occurs during polymerization. When pyrene-G-actin (monomer) forms pyrene-F-actin, fluorescence is enhanced. The enhanced fluorescence is used to follow polymerization over time. Table 2 lists activities as the percentage of actin polymerization inhibition, compared to the negative vehicle control (DMSO), along with calculated IC50.
Pyrene-Actin Polymerization Assays. Actin polymerization assays were performed in accordance with the manufacturer's instructions (Cytoskeleton, Denver, Colo.). Briefly, […] final concentration of monomeric actin (1:10 pyrene labeled) was incubated on ice for 10 min with one of various concentrations of one of the latrunculin derivatives. Samples were then equilibrated 10 min in an ELISA plate reader (BioTek, VT), after which polymerization was induced by adding KCl, MgCl2, and ATP. Compounds 1-14 were tested at 0.1, 0.5, 1.0, and 10 μM. The IC50 for each compound was calculated using GraphPad Prism 5.0.
Pyrene-actin polymerization assays. Actin polymerization inhibitory activity is assessed using the Cytoskeleton Actin Polymerization kit (Cytoskeleton, Denver, Colo.). Briefly, […] (final concentration) of monomeric actin (1:10 pyrene labeled) is incubated on ice for 10 min with one of various concentrations of the test latrunculin compound. Samples are equilibrated 10 min in an ELISA plate reader (BioTek, VT), after which polymerization is induced by adding KCl, MgCl2, and ATP. Compounds are tested at 0.1, 0.5, 1.0, and 10 μM. The IC50 for each compound is calculated using GraphPad Prism 5.0.

Assay [5] concerns PC-3. Put plainly: MTT proliferation assay, PC-3. The assay is classed as cell-based, human. The following applies: Homo sapiens, read-out: IC50 (μM) PC-3.
Source text: as §1, §2

[6] abbreviates: MDA-MB-231, MTT, 72 h, mean ± SEM.
[7] abbreviates: 100 nM, compared to vehicle control (DMSO).
The mark [8] stands for this setting: 1 μM, compared to vehicle control (DMSO).

Like-named read-outs stand apart in the source and are kept apart here.

The IC50 is the concentration that gives 50% inhibition. The term inhibition denotes the relative decrease from the control value, in per cent. Regarding `C/C1=C/C(=O)O[C@@H]2C[C@@H](CC[C@H](C)/C=C\C=C\CC1)O[C@@](O)([C@@H]1CSC(=O)N1Cc1ccccc1)C2` [Compound 13, N-Benzyllatrunculin A], the IC50 in assay [1] (setting [6]) turned out to be 2.72 µM; in assay [3] (MCF7, MTT, 72 h, mean ± SEM), 0.63 µM; in assay [4], 445 ± 79 nM; in assay [5] (PC-3, MTT, 72 h), 3.8 µM. The “fold more active against cell invasion than latrunculin A (compound 1)” value in assay [2] (0.5 μM) turned out to be 3.1 fold. The inhibition at 0.1 µM in assay [4] (setting [7]) was 24%. In addition, the inhibition at 1 µM in assay [4] (setting [8]) is 64%.
For `C/C1=C/C(=O)O[C@@H]2C[C@@H](CC[C@H](C)/C=C\C=C\CC1)O[C@@](OC(=O)c1ccccc1)([C@@H]1CSC(=O)N1)C2` [Compound 4, 17-O-Benzoyllatrunculin A], the IC50 in assay [1] (setting [6]) came to 5.05 ± 0.36 µM; in assay [3] (MCF7, MTT, 72 h, mean ± SEM), 0.52 ± 0.14 µM; in assay [4], 466 ± 51 nM; in assay [5] (PC-3, MTT, 72 h) it was 6.44 µM. The “anti-invasive activity compared with compound 1” value in assay [2] (1 and 0.5 μM doses) is recorded as “equipotent to compound 1”. Besides, the inhibition at 0.1 µM in assay [4] (setting [7]) came out at 23%. Further, in assay [4] (setting [8]), the inhibition at 1 µM stood at 67%.
On to `C/C1=C/C(=O)O[C@@H]2C[C@@H](CC[C@H](C)/C=C\C=C\CC1)O[C@@](O)([C@@H]1CSC(=O)N1)C2` [Compound 1, Latrunculin A, reference compound], for which the IC50 amounted to 4.19 ± 1.49 µM in assay [1] (MDA-MB-231, 72 h); 0.48 ± 0.04 µM in assay [3] (MCF7, 72 h); 284 ± 72 nM in assay [4]; 3.9 µM in assay [5] (PC-3, 72 h). The inhibition at 0.1 µM in assay [4] worked out at 30%. In addition, the inhibition at 1 µM in assay [4] stood at 73%.
As for `CO[C@]1([C@@H]2CSC(=O)N2CCCO)C[C@H]2C[C@@H](CC[C@H](C)/C=C\C=C\CC/C(C)=C\C(=O)O2)O1` [Compound 8, 17-O-Methyl-N-(3′-hydroxypropyl)latrunculin A], the IC50 in assay [1] (setting [6]) is greater than 50 µM; in assay [3] (MCF7, MTT, 72 h, mean ± SEM), 19.2 ± 3.91 µM; in assay [4] it was 8550 ± 574 nM; in assay [5] (PC-3, MTT, 72 h) it was 34.2 µM. Moreover, the inhibition at 0.1 µM in assay [4] (setting [7]) worked out at 0%. Moreover, in assay [4] (setting [8]), the inhibition at 1 µM was determined as 21%.
In the case of `CCN1C(=O)SC[C@H]1[C@@]1(OC)C[C@H]2C[C@@H](CC[C@H](C)/C=C\C=C\CC/C(C)=C\C(=O)O2)O1` [Compound 6, 17-O-Methyl-N-ethyllatrunculin A], the IC50 was greater than 50 µM in assay [1] (setting [6]); 20.6 ± 2.77 µM in assay [3] (MCF7, MTT, 72 h, mean ± SEM); greater than 10000 nM in assay [4]; 29.3 µM in assay [5] (PC-3, MTT, 72 h). In addition, the inhibition at 0.1 µM in assay [4] (setting [7]) was 0%. Also, the inhibition at 1 µM in assay [4] (setting [8]) came out at 18%.
Consider `CO[C@]1([C@@H]2CSC(=O)N2C2CCCC2)C[C@H]2C[C@@H](CC[C@H](C)/C=C\C=C\CC/C(C)=C\C(=O)O2)O1` [Compound 7, 17-O-Methyl-N-cyclopentanelatrunculin A], for which the IC50 in assay [1] (setting [6]) was 5.07 ± 0.72 µM; in assay [3] (MCF7, MTT, 72 h, mean ± SEM) it was 5.3 ± 1.32 µM; in assay [4], 1050 ± 271 nM; in assay [5] (PC-3, MTT, 72 h) it was 7.24 µM. Also, the inhibition at 0.1 µM in assay [4] (setting [7]) was found to be 20%. In addition, the inhibition at 1 µM in assay [4] (setting [8]) worked out at 49%.
As for `CO[C@]1([C@@H]2CSC(=O)N2C(=O)c2ccccc2)C[C@H]2C[C@@H](CC[C@H](C)/C=C\C=C\CC/C(C)=C\C(=O)O2)O1` [Compound 10, 17-O-Methyl-N-benzoyllatrunculin A], the IC50 in assay [1] (setting [6]) worked out at 4.48 ± 1.79 µM; in assay [3] (MCF7, MTT, 72 h, mean ± SEM), 0.55 ± 0.091 µM; in assay [4], 834 ± 109 nM; in assay [5] (PC-3, MTT, 72 h) it was 4.7 µM. Besides, the inhibition at 0.1 µM in assay [4] (setting [7]) was found to be 17%. In assay [4] (setting [8]), the inhibition at 1 µM is 53%.
Take `CO[C@]1([C@@H]2CSC(=O)N2)C[C@H]2C[C@@H](CC[C@H](C)/C=C\C=C\CC/C(C)=C\C(=O)O2)O1` [Compound 2, 17-O-Methyllatrunculin A]: the IC50 was 23.4 ± 0.85 µM in assay [1] (setting [6]); 10.2 ± 1.72 µM in assay [3] (MCF7, MTT, 72 h, mean ± SEM); 9230 ± 825 nM in assay [4]; 22.3 µM in assay [5] (PC-3, MTT, 72 h). In assay [4] (setting [7]), the inhibition at 0.1 µM was found to be 6%. In assay [4] (setting [8]), the inhibition at 1 µM is 21%.
For `CO[C@]1([C@@H]2CSC(=O)N2C)C[C@H]2C[C@@H](CC[C@H](C)/C=C\C=C\CC/C(C)=C\C(=O)O2)O1` [Compound 5, 17-O-Methyl-N-methyllatrunculin A], the IC50 in assay [1] (setting [6]) was 19.9 ± 3.27 µM; in assay [3] (MCF7, MTT, 72 h, mean ± SEM), 13.1 ± 3.69 µM; in assay [4] it was greater than 10000 nM; in assay [5] (PC-3, MTT, 72 h), 19.4 µM. Also, the inhibition at 0.1 µM in assay [4] (setting [7]) amounted to 11%. The inhibition at 1 µM in assay [4] (setting [8]) stood at 19%.
`CO[C@]1([C@@H]2CSC(=O)N2Cc2ccccc2)C[C@H]2C[C@@H](CC[C@H](C)/C=C\C=C\CC/C(C)=C\C(=O)O2)O1` [Compound 9, 17-O-Methyl-N-benzyllatrunculin A]: the IC50 stood at 6.82 ± 1.41 µM in assay [1] (setting [6]); 0.78 ± 0.24 µM in assay [3] (MCF7, MTT, 72 h, mean ± SEM); 333 ± 76 nM in assay [4]; 8.3 µM in assay [5] (PC-3, MTT, 72 h). Moreover, the inhibition at 0.1 µM in assay [4] (setting [7]) was 33%. The inhibition at 1 µM in assay [4] (setting [8]) came to 67%.

For the origin of these results see patent US20110136880A1, “Latrunculin-Based Macrolides and Their Uses” (priority 2009, published 2011).
